The record followed here is the NIST ThermoML archive (doi:10.1021/je060257y).

Structures are written as SMILES. Numbers after ± are expanded uncertainties.

This data set in a line: molar heat capacity at constant pressure. The following applies: 101.33 kPa, Crystal.

As to `O=c1[nH]cc(I)c(=O)[nH]1` [5-iodouracil], the “molar heat capacity at constant pressure” value is, setting by setting: (298.15 K) 150.9 ± 4.7 J/K/mol; (303.15 K) 153.9 ± 4.8 J/K/mol; (308.15 K) 156.8 ± 4.9 J/K/mol; (313.15 K) 159.8 ± 5 J/K/mol; (318.15 K) 162.8 ± 5 J/K/mol; (323.15 K) 165.8 ± 5.1 J/K/mol. Further, the “molar heat capacity at constant pressure” value (328.15 K) turned out to be 168.6 ± 5.2 J/K/mol, the “molar heat capacity at constant pressure” value (333.15 K) is 170.3 ± 5.3 J/K/mol, the “molar heat capacity at constant pressure” value (338.15 K) is recorded as 172.7 ± 5.4 J/K/mol and the “molar heat capacity at constant pressure” value (343.15 K) is 177.5 ± 5.5 J/K/mol.

`Cn1c2c(c(=O)n(C)c1=O)CCCCC2`: the “molar heat capacity at constant pressure” value is, setting by setting: (298.15 K) 314.5 ± 9.7 J/K/mol; (303.15 K) 321.6 ± 10 J/K/mol; (308.15 K) 329 ± 10 J/K/mol; (313.15 K) 333.6 ± 10 J/K/mol; (318.15 K) 341.1 ± 11 J/K/mol; (323.15 K) 347.9 ± 11 J/K/mol. In addition, the “molar heat capacity at constant pressure” value amounted to 353.3 ± 11 J/K/mol (328.15 K), 358.4 ± 11 J/K/mol (333.15 K), 363.2 ± 11 J/K/mol (338.15 K) and 367.3 ± 11 J/K/mol (343.15 K).

Take `O=c1[nH]cc(F)c(=O)[nH]1` [5-fluoro-2,4(1H,3H)-pyrimidinedione]: the “molar heat capacity at constant pressure” value is 138.3 ± 4.7 J/K/mol (298.15 K); 139.1 ± 4.7 J/K/mol (303.15 K); 140 ± 4.7 J/K/mol (308.15 K); 140.9 ± 4.8 J/K/mol (313.15 K); 142 ± 4.8 J/K/mol (318.15 K); 143.6 ± 4.8 J/K/mol (323.15 K). Also, the “molar heat capacity at constant pressure” value is, setting by setting: (328.15 K) 145.5 ± 4.9 J/K/mol; (333.15 K) 147.9 ± 4.9 J/K/mol; (338.15 K) 150.6 ± 5 J/K/mol; (343.15 K) 153.8 ± 5.1 J/K/mol.

As for `Cc1cn(C)c(=O)[nH]c1=O` [1,5-dimethyluracil], the “molar heat capacity at constant pressure” value runs as follows: (298.15 K) 187.6 ± 5.8 J/K/mol; (303.15 K) 190 ± 5.9 J/K/mol; (308.15 K) 190.3 ± 5.9 J/K/mol; (313.15 K) 194.1 ± 6 J/K/mol; (318.15 K) 194.8 ± 6 J/K/mol; (323.15 K) 198.5 ± 6.2 J/K/mol. In addition, the “molar heat capacity at constant pressure” value reads like this: (328.15 K) 199.2 ± 6.2 J/K/mol; (333.15 K) 202 ± 6.3 J/K/mol; (338.15 K) 203 ± 6.3 J/K/mol; (343.15 K) 205.2 ± 6.4 J/K/mol.

As to `Oc1ncc(Cl)c(O)n1` [5-chloro-2,4-pyrimidinedione], the “molar heat capacity at constant pressure” value by setting is: (298.15 K) 136.7 ± 4.2 J/K/mol; (303.15 K) 137.9 ± 4.3 J/K/mol; (308.15 K) 142.1 ± 4.4 J/K/mol; (313.15 K) 142.9 ± 4.4 J/K/mol; (318.15 K) 146.1 ± 4.5 J/K/mol; (323.15 K) 147.2 ± 4.6 J/K/mol. The “molar heat capacity at constant pressure” value reads like this: (328.15 K) 151.2 ± 4.7 J/K/mol; (333.15 K) 152.9 ± 4.7 J/K/mol; (338.15 K) 154.9 ± 4.8 J/K/mol; (343.15 K) 157 ± 4.9 J/K/mol.

On to `O=c1[nH]cc(C(F)(F)F)c(=O)[nH]1` [5-(trifluoromethyl)uracil], for which the “molar heat capacity at constant pressure” value (298.15 K) came to 182.2 ± 5.6 J/K/mol; the “molar heat capacity at constant pressure” value (303.15 K) is reported as 183.9 ± 5.7 J/K/mol; the “molar heat capacity at constant pressure” value (308.15 K) is given as 188.1 ± 5.8 J/K/mol; the “molar heat capacity at constant pressure” value (313.15 K) is reported as 190.3 ± 5.9 J/K/mol; the “molar heat capacity at constant pressure” value (318.15 K) is recorded as 192.2 ± 6 J/K/mol; the “molar heat capacity at constant pressure” value (323.15 K) worked out at 195.9 ± 6.1 J/K/mol. For the same compound, the “molar heat capacity at constant pressure” value (328.15 K) is reported as 198.2 ± 6.1 J/K/mol, the “molar heat capacity at constant pressure” value (333.15 K) was determined as 199.4 ± 6.2 J/K/mol, the “molar heat capacity at constant pressure” value (338.15 K) amounted to 204.4 ± 6.3 J/K/mol and the “molar heat capacity at constant pressure” value (343.15 K) is 206.6 ± 6.4 J/K/mol.

Turning to `Cc1cc(=O)n(C)c(=O)[nH]1` [3,6-dimethyluracil], the “molar heat capacity at constant pressure” value reads like this: (298.15 K) 187.4 ± 5.9 J/K/mol; (303.15 K) 193.1 ± 6 J/K/mol; (308.15 K) 191.4 ± 6 J/K/mol; (313.15 K) 193.5 ± 6.1 J/K/mol; (318.15 K) 198.4 ± 6.2 J/K/mol; (323.15 K) 200.3 ± 6.2 J/K/mol. Further, the “molar heat capacity at constant pressure” value (328.15 K) is reported as 202.4 ± 6.3 J/K/mol, the “molar heat capacity at constant pressure” value (333.15 K) was 203.8 ± 6.3 J/K/mol, the “molar heat capacity at constant pressure” value (338.15 K) came to 206 ± 6.4 J/K/mol and the “molar heat capacity at constant pressure” value (343.15 K) is given as 209 ± 6.5 J/K/mol.

As for `Cc1cc(=O)n(C)c(=O)n1C` [1,3,6-trimethyl-2,4(1H,3H)-pyrimidinedione], the “molar heat capacity at constant pressure” value (298.15 K) is 212.6 ± 7.2 J/K/mol; the “molar heat capacity at constant pressure” value (303.15 K) is given as 213.5 ± 7.2 J/K/mol; the “molar heat capacity at constant pressure” value (308.15 K) is given as 217.1 ± 7.3 J/K/mol; the “molar heat capacity at constant pressure” value (313.15 K) turned out to be 218.5 ± 7.4 J/K/mol; the “molar heat capacity at constant pressure” value (318.15 K) was 219.8 ± 7.4 J/K/mol; the “molar heat capacity at constant pressure” value (323.15 K) was 223.4 ± 7.5 J/K/mol. The “molar heat capacity at constant pressure” value is recorded as 228.3 ± 7.6 J/K/mol (328.15 K), 229 ± 7.6 J/K/mol (333.15 K), 236.5 ± 7.8 J/K/mol (338.15 K) and 239.6 ± 7.9 J/K/mol (343.15 K).

For the compound `Cn1ccc(=O)[nH]c1=O` [1-methyl-2,4(1H,3H)-pyrimidinedione], the “molar heat capacity at constant pressure” value is, setting by setting: (298.15 K) 156.9 ± 4.9 J/K/mol; (303.15 K) 167.2 ± 5.2 J/K/mol; (308.15 K) 179.6 ± 5.6 J/K/mol; (313.15 K) 190.9 ± 5.9 J/K/mol; (318.15 K) 200.5 ± 6.2 J/K/mol; (323.15 K) 211.1 ± 6.5 J/K/mol. The “molar heat capacity at constant pressure” value by setting is: (328.15 K) 223 ± 6.9 J/K/mol; (333.15 K) 235 ± 7.3 J/K/mol; (338.15 K) 245.9 ± 7.6 J/K/mol; (343.15 K) 256.1 ± 7.9 J/K/mol.

For the compound `O=[N+]([O-])c1cnc(O)nc1O` [2,4-pyrimidinedione, 5-nitro-], the “molar heat capacity at constant pressure” value by setting is: (298.15 K) 167.2 ± 5.2 J/K/mol; (303.15 K) 167.9 ± 5.2 J/K/mol; (308.15 K) 169.9 ± 5.3 J/K/mol; (313.15 K) 169.9 ± 5.3 J/K/mol; (318.15 K) 171.1 ± 5.3 J/K/mol; (323.15 K) 171.8 ± 5.3 J/K/mol. Further, the “molar heat capacity at constant pressure” value by setting is: (328.15 K) 173 ± 5.4 J/K/mol; (333.15 K) 173.1 ± 5.4 J/K/mol; (338.15 K) 174.5 ± 5.4 J/K/mol; (343.15 K) 174.5 ± 5.4 J/K/mol.

`Cn1c(=O)cc[nH]c1=O` [uracil, 3-methyl-]: the “molar heat capacity at constant pressure” value is reported as 157 ± 5 J/K/mol (298.15 K); 168.8 ± 5.3 J/K/mol (303.15 K); 181.2 ± 5.7 J/K/mol (308.15 K); 193 ± 6 J/K/mol (313.15 K); 206.1 ± 6.4 J/K/mol (318.15 K); 214.3 ± 6.6 J/K/mol (323.15 K). Further, the “molar heat capacity at constant pressure” value was determined as 226.1 ± 7 J/K/mol (328.15 K), 239.2 ± 7.4 J/K/mol (333.15 K), 249 ± 7.7 J/K/mol (338.15 K) and 260.2 ± 8.1 J/K/mol (343.15 K).

As for `Cn1ccc(=O)n(C)c1=O` [1,3-dimethyl-2,4-(1H,3H)-pyrimidinedione], the “molar heat capacity at constant pressure” value turned out to be 182.5 ± 5.7 J/K/mol (298.15 K); 185.4 ± 5.7 J/K/mol (303.15 K); 188.7 ± 5.8 J/K/mol (308.15 K); 191.2 ± 5.9 J/K/mol (313.15 K); 193.8 ± 6 J/K/mol (318.15 K); 196.4 ± 6.1 J/K/mol (323.15 K). Moreover, the “molar heat capacity at constant pressure” value was 199.1 ± 6.2 J/K/mol (328.15 K), 201 ± 6.2 J/K/mol (333.15 K), 203.3 ± 6.3 J/K/mol (338.15 K) and 206.8 ± 6.4 J/K/mol (343.15 K).
